The values that follow come from ChEMBL document CHEMBL2029199, “Pyrazole and pyrimidine phenylacylsulfonamides as dual Bcl-2/Bcl-xL antagonists” (Bioorg Med Chem Lett, 2012).

Assay [1] concerns MV4-11. Description: Induction of cytochrome C release in mitochondria isolated from human MV411 cells after 40 mins by Western blotting analysis. It is filed as functional.
For assay [2], the system named is MV4-11. Description: Induction of BAK oligomerization in mitochondria isolated from human MV411 cells after 40 mins by Western blotting analysis. It is filed as functional.
Assay [3] deals with Apoptosis regulator Bcl-2 (Homo sapiens, UniProt P10415). The assay is described as follows: Inhibition of GST-tagged Bcl2 using [FAM]-IWIAQELRRIGDEFNAYY-NH2 as substrate after 60 mins by fluorescence polarization assay. Background: In fluorescence polarisation assays a small probe gives low polarisation when free and higher when bound to something large.
Chain of Apoptosis regulator Bcl-2 (P10415 whole entry): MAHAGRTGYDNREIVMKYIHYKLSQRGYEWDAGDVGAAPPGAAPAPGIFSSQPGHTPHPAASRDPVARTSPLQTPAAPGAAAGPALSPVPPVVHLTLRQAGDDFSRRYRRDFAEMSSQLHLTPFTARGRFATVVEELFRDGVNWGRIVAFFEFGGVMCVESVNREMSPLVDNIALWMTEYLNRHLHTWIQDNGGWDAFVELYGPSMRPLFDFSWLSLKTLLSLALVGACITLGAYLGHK
The test system of assay [4] is MV4-11. The assay is described as follows: Cytotoxicity against human MV411 cells after 72 hrs by firefly luciferase-based assay in presence of 10% fetal calf serum. Format: functional, cell-based. The note with it: MV4-11, 72 h.
In assay [5] the test system is MV4-11. Description: Induction of mitochondria depolarization in human MV411 cells at 3 uM after 7 hrs by flow cytometry. It is filed as functional. In general terms: A flow cytometer gives signals particle by particle.
Assay [6] has as its system MV4-11. The assay is described as follows: Cytotoxicity against human MV411 cells after 72 hrs by firefly luciferase-based assay in presence of 2% fetal calf serum. It is filed as functional, cell-based. The note with it: MV4-11, 72 h.
Assay [7] concerns the target Bcl-2-like protein 1 (Homo sapiens, UniProt Q07817). The assay is described as follows: Inhibition of biotin-labelled Bcl-xL using [FAM]-IWIAQELRRIGDEFNAYY-NH2 as substrate after 60 mins by FRET analysis.
Assay [8] in a line: Cytotoxicity against human SU-DHL4 cells after 72 hrs by firefly luciferase-based assay in presence of 2% fetal calf serum. Format: functional, cell-based, SUD4. The note with it: SU-DHL-4, 72 h.
Assay [9] concerns MV4-11. Description: Induction of BAK oligomerization in mitochondria isolated from human MV411 cells at 1 uM after 40 mins by Western blotting analysis. Format: functional. On the technique in general: In western blotting, separated proteins are transferred to a membrane and probed.
Assay [10] has as its system MV4-11. The assay is described as follows: Induction of BAK oligomerization in mitochondria isolated from human MV411 cells at 0.1 uM after 40 mins by Western blotting analysis. Format: functional.
Assay [11] deals with MV4-11. Description: Induction of cytochrome C release in mitochondria isolated from human MV411 cells at 0.1 uM after 40 mins by Western blotting analysis. Format: functional.

The structures appear in SMILES notation. The source made the active and inactive calls. No cut-off for these calls is given here. Some results are limits rather than exact numbers.

Chain of Bcl-2-like protein 1 (Q07817 whole entry): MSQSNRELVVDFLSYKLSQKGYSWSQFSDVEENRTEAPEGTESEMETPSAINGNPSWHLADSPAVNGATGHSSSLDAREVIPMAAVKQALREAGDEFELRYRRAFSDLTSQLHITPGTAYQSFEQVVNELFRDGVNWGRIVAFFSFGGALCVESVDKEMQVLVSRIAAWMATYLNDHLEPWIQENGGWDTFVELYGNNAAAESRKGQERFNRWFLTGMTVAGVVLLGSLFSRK

`CCCN(CCC)c1ncc(Cl)c(-c2ccc(C(=O)NS(=O)(=O)c3ccc4cccc(Cl)c4c3)cc2C(=O)N2Cc3ccccc3C[C@H]2CN)n1`: the Activity result in [1] is “Dose-dependent effect”; in [2] it was “Dose-dependent effect”; in assay [5], 25%. Moreover, the IC50 in assay [3] came to 15 nM; in [4], 730 nM; in assay [6], 330 nM; in assay [7], 14 nM; in assay [8] it was 6640 nM.
`CCCCOc1ccc(-n2nc(CO)c(-c3ccc(C(=O)NS(=O)(=O)c4ccc5ccccc5c4)cc3C(=O)N3CCc4ccccc4C3)c2CCCC)cc1`: the IC50 in assay [3] came out at 45 nM; in assay [6], 1430 nM; in assay [7] it was 26 nM; in assay [8] it was 2490 nM.
`CCCCc1c(-c2ccc(C(=O)NS(=O)(=O)c3ccc4ccccc4c3)cc2C(=O)N2CCc3ccccc3C2)c(CO)nn1-c1ccc(Oc2ccccc2)cc1`: the midpoint of inhibition in assay [7], the IC50, lay at 35 nM.
Take `CCCCc1c(-c2ccc(C(=O)NS(=O)(=O)c3ccc4ccccc4c3)cc2C(=O)N2CCc3ccccc3C2)c(CO)nn1-c1ccc(Oc2ccc(Cl)cc2)cc1`: the IC50 in assay [3] was determined as 22 nM; in assay [7] it was 35 nM.
On to `CCCCc1c(-c2ccc(C(=O)NS(=O)(=O)c3ccc4ccccc4c3)cc2C(=O)N2CCc3ccccc3C2)c(C(=O)OCC)nn1-c1cccc(Oc2ccccc2)c1`, for which the half-inhibitory concentration (IC50) in assay [3] came out at 140 nM; in assay [7], 470 nM.
With `CCCCc1c(-c2ccc(C(=O)NS(=O)(=O)c3ccc4ccccc4c3)cc2C(=O)N2CCc3ccccc3C2)c(CO)nn1-c1ccc(CCO)cc1`, the midpoint of inhibition in assay [7], the IC50, lay at 6 nM.
On to `CCOC(=O)c1nn(-c2ccccc2)c(C)c1-c1ccc(C(=O)NS(=O)(=O)c2ccc3ccccc3c2)cc1C(=O)N1CCc2ccccc2C1`, for which the results for the IC50 in assay [3] and in assay [7] were 4190 nM and 640 nM, respectively.
`CCCCN(CCCC)c1nccc(-c2ccc(C(=O)NS(=O)(=O)c3ccc4cccc(Cl)c4c3)cc2C(=O)N2CCc3ccccc3C2)n1`: the IC50 came out at 120 nM in assay [3] and 480 nM in assay [7].
For the compound `CCCCc1c(-c2ccc(C(=O)NS(=O)(=O)c3ccc4ccccc4c3)cc2C(=O)N2CCc3ccccc3C2)c(C(=O)OCC)nn1-c1ccc(OC)cc1`, the IC50 in assay [3] is 1790 nM; in assay [7] it was 48 nM.
As to `CCCCN(CCCC)c1nccc(-c2ccc(C(=O)NS(=O)(=O)c3ccc4ccc(I)cc4c3)cc2C(=O)N2CCc3ccccc3C2)n1`, the IC50 was determined as 140 nM in [3] and 970 nM in [7].
For the compound `CCCN(CCC)c1nccc(-c2ccc(C(=O)NS(=O)(=O)c3ccc4ccccc4c3)cc2C(=O)N2CCc3ccccc3C2)n1`, the values for the half-inhibitory concentration (IC50) in [3] and in [7] were 150 nM and 250 nM, respectively. Moreover, the result in assay [9] was inactive.
Consider `CCCCc1c(-c2ccc(C(=O)NS(=O)(=O)c3ccc4ccccc4c3)cc2C(=O)N2Cc3ccccc3C[C@H]2CO)c(CO)nn1-c1ccccc1`, for which the IC50 in assay [3] was 11 nM.
On to `CCCCCS(=O)(=O)NC(=O)c1ccc(-c2c(CO)nn(-c3ccc(Oc4cccc(Cl)c4)cc3)c2CCCC)c(C(=O)N2CCc3ccccc3C2)c1`, for which the IC50 in assay [3] worked out at 65 nM; in [7], 120 nM.
As to `CCCCc1c(-c2ccc(C(=O)NS(=O)(=O)c3ccc4ccccc4c3)cc2C(=O)N2CCc3ccccc3C2)c(C(=O)OCC)nn1-c1ccccc1`, the IC50 is 660 nM in assay [3] and 42 nM in [7].
For `CCCCc1c(-c2ccc(C(=O)NS(=O)(=O)c3ccc4ccccc4c3)cc2C(=O)N2CCc3ccccc3C2)c(CO)nn1-c1cccc(CO)c1`, the IC50 in assay [3] was 71 nM; in assay [6], 5060 nM; in assay [7], 15 nM; in assay [8] it was greater than 10000 nM. The outcome in assay [10] and in [11] was Active.
As to `CCCCc1c(-c2ccc(C(=O)NS(=O)(=O)c3ccc4ccccc4c3)cc2C(=O)N2CCc3ccccc3C2)c(CO)nn1-c1ccccc1`, the results for the IC50 in assay [3] and in assay [7] were 61 nM and 11 nM, respectively.
For the compound `CCCCc1c(-c2ccc(C(=O)NS(=O)(=O)c3ccc4ccccc4c3)cc2C(=O)N2Cc3ccccc3C[C@H]2CN)c(CO)nn1-c1ccccc1`, the half-inhibitory concentration (IC50) came to 24 nM in [3] and 7 nM in assay [7].
Taken in the same sequence, the figures for `CCCCN(CCCC)c1nccc(-c2ccc(C(=O)NS(=O)(=O)c3ccc4cccc(Cl)c4c3)cc2C(=O)N2Cc3ccccc3C[C@H]2CO)n1` were 160 nM and 130 nM.
In the case of `CCCCc1c(-c2ccc(C(=O)NS(=O)(=O)c3ccc4ccccc4c3)cc2C(=O)N2CCc3ccccc3C2)c(CO)nn1-c1ccc(Oc2cccc(Cl)c2)cc1`, the IC50 in [3] was 8 nM; in assay [6], 700 nM; in assay [7], 18 nM; in assay [8], 2350 nM. In [5], this compound came in with an Activity of 25%. Moreover, the outcome in assay [10] and in assay [11] was Active.
Consider `CCCCN(CCCC)c1nccc(-c2ccc(C(=O)NS(=O)(=O)c3ccc4c(c3)CCN4Cc3ccc(Cl)c(Cl)c3)cc2C(=O)N2CCc3ccccc3C2)n1`, for which the figures for the IC50 in assay [3] and in assay [7] were 120 nM and 710 nM, respectively.
As to `CCCCc1c(-c2ccc(C(=O)NS(=O)(=O)c3ccc4cccc(Cl)c4c3)cc2C(=O)N2CCc3ccccc3C2)c(CO)nn1-c1ccc(Oc2cccc(Cl)c2)cc1`, the concentration for half-maximal inhibition (IC50) in assay [3] came to 6 nM; in assay [6] it was 580 nM; in [7], 15 nM; in [8], 2020 nM.
Turning to `CCCCc1c(-c2ccc(C(=O)NS(=O)(=O)CC)cc2C(=O)N2CCc3ccccc3C2)c(CO)nn1-c1ccc(Oc2cccc(Cl)c2)cc1`, the IC50 worked out at 190 nM in assay [3] and 140 nM in assay [7].
As for `CCCCc1c(-c2ccc(C(=O)NS(=O)(=O)c3ccc4ccccc4c3)cc2C(=O)N2CCc3ccccc3C2)c(CO)nn1-c1ccc(-c2ccccc2)cc1`, the figures for the IC50 in [3] and in assay [7] were 7 nM and 13 nM, respectively.
Turning to `CCCCc1c(-c2ccc(C(=O)NS(=O)(=O)c3ccc4ccccc4c3)cc2C(=O)N2CCc3ccccc3C2)c(C(=O)O)nn1-c1ccccc1`, the IC50 in assay [3] was determined as 170 nM; in assay [7], 30 nM.
For `CCCCN(CCCC)c1nccc(-c2ccc(C(=O)NS(=O)(=O)c3ccc4ccccc4c3)cc2C(=O)N2CCc3ccccc3C2)n1`, the half-maximal inhibitory concentration (IC50) turned out to be 700 nM in [3] and 500 nM in [7].
For `CCCCN(CCCC)c1ncc(C)c(-c2ccc(C(=O)NS(=O)(=O)c3ccc4ccccc4c3)cc2C(=O)N2CCc3ccccc3C2)n1` the same measures were 110 nM and 120 nM.
For `CCCCc1c(-c2ccc(C(=O)NS(=O)(=O)c3ccc4ccccc4c3)cc2C(=O)N2CCc3ccccc3C2)c(CO)nn1-c1ccc(CCCO)cc1` the same measures were 14 nM and 7 nM.
For the compound `CCCN(CCC)c1ncc(Cl)c(-c2ccc(C(=O)NS(=O)(=O)c3ccc4cccc(Cl)c4c3)cc2C(=O)N2Cc3ccccc3C[C@H]2CO)n1`, the Activity entry in assay [1] is “Dose-dependent effect”; in assay [2], “Dose-dependent effect”; in assay [5] it was 25%. Further, the IC50 in [3] is 9 nM; in assay [6], 330 nM; in assay [7], 9 nM; in assay [8] it was 3790 nM.
`CCCCc1c(-c2ccc(C(=O)NS(=O)(=O)CC[Si](C)(C)C)cc2C(=O)N2CCc3ccccc3C2)c(CO)nn1-c1ccccc1` showed an IC50 in assay [3] of 190 nM.
For the compound `CCCCN(CCCC)c1ncc(Cl)c(-c2ccc(C(=O)NS(=O)(=O)c3ccc4ccccc4c3)cc2C(=O)N2CCc3ccccc3C2)n1`, the IC50 turned out to be 160 nM in [3] and 230 nM in [7].
In the case of `CCCCN(CCCC)c1nccc(-c2ccc(C(=O)NS(=O)(=O)c3ccc4ccccc4c3)cc2C(=O)N2Cc3ccccc3C[C@H]2CN)n1`, the IC50 came to 430 nM in [3] and 160 nM in [7].
The compound `CCCCc1c(-c2ccc(C(=O)NS(=O)(=O)c3ccc4ccccc4c3)cc2C(=O)N2CCc3ccccc3C2)c(C(=O)OCC)nn1-c1ccc(Oc2ccccc2)cc1` registered an IC50 in assay [7] of 55 nM.

As usually defined, the IC50 is the concentration at which inhibition is half-maximal.
